Literature values as cited in paper PMC6680430, “Quantitative Prediction of Human Pharmacokinetics and Pharmacodynamics of CKD519, a Potent Inhibitor of Cholesteryl Ester Transfer Protein (CETP)” (Pharmaceutics, 2019).

System: CETP
Conditions: cited from earlier work

For `COc1cc(F)c(C(C)C)cc1-c1ccc(C(F)(F)F)cc1CN1C(=O)O[C@H](c2cc(C(F)(F)F)cc(C(F)(F)F)c2)[C@@H]1C` [anacetrapib], the “peak effect, inhibition of CETP” value (exposure-response from literature) is listed as ~ 90% and the IC50 (known in vivo value for the comparator, read-out: in vivo IC50 (plasma concentration for half of maximum CETP inhibition)) is listed as 22 nM.
